From US6962900B2, “Pharmaceutical being used for treating HIV infection, the composition and uses thereof” (priority 2001, dated 2005)
“Also recorded” adds a separate entry of the source. Peptide text beside a SMILES is read from it.

Tests used:
[1] = target: T1, HIV-1 gp160HXB (Human immunodeficiency virus type 1 group M subtype B, UniProt P04578); test: cell-cell fusion assay (luciferase reporter, synplasm formation induced by HIV-1 gp160HXB); assay type: cell-based
T1 construct: expressed in transfected cells; host or cells: 293T cells
Source text: The specific experiment methods are as follows: The T7 promoter was inserted into the pSP64 upstream sequence of the cloning site to assemble a luciferase reporter gene plasmid—Pst7luc. The internal ribozyme entry site (IRES) of encephalomyocarditis virus (CMCV) was linked with the 5′-terminal of luciferase gene as well as the downstream area of T7 promoter. CD4 gene, T7 polymerase gene, and HIV-1 gp160HXB gene were subcloned into the mammalian expression plasmid—PMT3.
In a 10 cm culture dish, the 293T cells were transferred by Calcium Phosphate Method. Equal quantities of gp160HXB gene and T7 polymerase gene were used to transfect the effector cells, and pSP64 and CD4 gene were used to transfect the target cells. The PMT3 plasmid in the absence of gp160HXB or CD4 gene was set as a negative control.
The cells with non-serous DMEM were rinsed, after the DNA precipitate was added. The cells were cultured for 30-40 minutes at 37° C. in 9 ml/dish non-serous DMEM. […]
The solution as a stock solution was put to serial dilution in culture medium before use. […] Two minutes after adding luciferase substrate to the black 96-well culture plate, measure the chemical fluorescence intensity with Spex fluorolog-3 fluorimeter, the emission wavelength being 552 nm and slit breadth being 7 mm. The average and standard deviation were calculated from the three data of each concentration point.

[2] = target: T2, gp41 N-peptide (Human immunodeficiency virus type 1 group M subtype B, UniProt P04578); test: stability by melting curve (circular dichroism) of peptide complexed with gp41 N-peptide; assay type: physicochemical, HIV-1
T2 construct: The peptide solution containing Fusonex and gp41 N-peptide (35-70) was measured
Procedure: This experiment determined the stability of a polypeptide by measuring its melting curve at different temperatures. The experiment was carried out on Aviv 62A DS circular dichroism spectrum apparatus. The temperature range for heating peptide solution was from 20° C. to 95° C.

[3] = system: HIV; conditions: first and second stages of clinical trials; cited from earlier work

T2 sequence (P04578 546-581): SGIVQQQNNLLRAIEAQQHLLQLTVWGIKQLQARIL
T1 sequence (P04578 512-856): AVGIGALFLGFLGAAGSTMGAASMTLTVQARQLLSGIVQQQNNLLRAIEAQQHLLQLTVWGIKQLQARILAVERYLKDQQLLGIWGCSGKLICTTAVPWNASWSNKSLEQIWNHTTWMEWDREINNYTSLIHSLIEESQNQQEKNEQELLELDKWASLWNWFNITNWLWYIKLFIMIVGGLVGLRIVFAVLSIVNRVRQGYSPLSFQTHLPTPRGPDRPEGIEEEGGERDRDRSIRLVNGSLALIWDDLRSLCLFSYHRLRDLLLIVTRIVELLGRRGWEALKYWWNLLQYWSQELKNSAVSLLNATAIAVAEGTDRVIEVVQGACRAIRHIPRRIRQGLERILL

Compound	IC50 [1]	inhibiting activity compared with T-20 (cell fusion induced by HIV-1 gp160HXB) ([1]; at the same concentration, FIG. 5)	stability compared with T-20 (melting curve) ([2]; FIG. 4)	50% melting temperature ([2]; heating 20° C. to 95° C.)	toxicity against the spinal cord [3]
CC[C@H](C)[C@H](NC(=O)[C@H](CCC(=O)O)NC(=O)[C@H](CCCNC(=N)N)NC(=O)[C@H](CCC(=O)O)NC(=O)[C@H](Cc1c[nH]c2ccccc12)NC(=O)[C@@H](NC(=O)[C@H](CCC(=O)O)NC(=O)[C@H](Cc1c[nH]c2ccccc12)NC(=O)[C@H](CO)NC(C)=O)[C@@H](C)O)C(=O)N[C@@H](CCC(=O)O)C(=O)N[C@@H](CC(N)=O)C(=O)N[C@@H](Cc1ccc(O)cc1)C(=O)N[C@H](C(=O)N[C@@H](CCCCN)C(=O)N[C@@H](CCC(N)=O)C(=O)N[C@H](C(=O)N[C@@H](Cc1ccc(O)cc1)C(=O)N[C@@H](CCCCN)C(=O)N[C@H](C(=O)N[C@@H](CC(C)C)C(=O)N[C@@H](CCC(=O)O)C(=O)N[C@@H](CCC(=O)O)C(=O)N[C@@H](CO)C(=O)N[C@@H](CCC(N)=O)C(=O)N[C@@H](CCC(=O)O)C(=O)N[C@@H](CCC(N)=O)C(=O)N[C@@H](CCC(N)=O)C(=O)N[C@@H](CC(=O)O)C(=O)N[C@@H](CCCNC(=N)N)C(=O)N[C@@H](CC(N)=O)C(=O)N[C@@H](CCC(=O)O)C(=O)N[C@@H](CCCCN)C(=O)N[C@@H](CC(=O)O)C(=O)N[C@@H](CC(C)C)C(=O)N[C@@H](CC(C)C)C(=O)N[C@@H](CCC(=O)O)C(N)=O)[C@@H](C)CC)[C@@H](C)CC)[C@@H](C)O [Fusonex] (Ac-SWETWEREIENYTKQIYKILEESQEQQDRNEKDLLE-NH2)	1.2 ± 0.2 nM	better inhibiting activity than T-20	higher than that of T-20; also recorded: more stable than T-20	70 °C	–
enfuvirtide	–	–	–	–	no toxicity against the spinal cord
